The results in this text go back to patent US20130203659A1 (priority 2006, published 2013).

Where two headings read alike, the source gives them in different places. Non-standard residues stand in square brackets, D forms with d. Primed or numbered codes have the meaning given here. No end group written: not given here. Aib′ = alpha aminobutyric acid (source's wording); 20k mPEG = methoxy-polyethylene glycol, 20 kDa; 20k PEG = polyethylene glycol, 20 kDa

One may read the EC50 as the concentration at which the effect is half-maximal. The IC50 is the concentration that gives 50% inhibition. Low values mean higher potency, high ones lower potency.

Experiment [1] has as its target T1, mouse GLP-1 receptor (Mus musculus, UniProt O35659).
T1 construct: expressed in transfected cells; host or cells: CHOK1 cells with a cAMP-regulated luciferase reporter construct
T1 sequence (O35659 22-463): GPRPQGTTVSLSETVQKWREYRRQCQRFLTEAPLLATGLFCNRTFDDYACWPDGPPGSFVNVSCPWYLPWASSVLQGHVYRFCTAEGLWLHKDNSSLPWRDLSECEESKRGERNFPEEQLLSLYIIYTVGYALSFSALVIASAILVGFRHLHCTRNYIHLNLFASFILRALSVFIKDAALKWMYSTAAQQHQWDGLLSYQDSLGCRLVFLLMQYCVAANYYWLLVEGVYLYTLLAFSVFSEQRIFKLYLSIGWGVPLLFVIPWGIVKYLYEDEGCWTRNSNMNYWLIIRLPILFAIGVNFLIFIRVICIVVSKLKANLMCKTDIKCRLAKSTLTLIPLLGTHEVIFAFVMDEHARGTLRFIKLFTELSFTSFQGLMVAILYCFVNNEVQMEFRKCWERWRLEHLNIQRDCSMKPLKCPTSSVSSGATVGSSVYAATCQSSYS
Description: GLP-1R reporter assay (cAMP-regulated luciferase, CHOK1 cells), mouse receptor. The experiment is classed as cell-based. Particulars: 6 hours exposure. The protocol:
(§1) A. GLP-1R Reporter Assay:
(§2) Increased cAMP levels were measured through enhanced expression of a luciferase reporter gene. […] The evening prior to assay, the cells were washed, the medium replaced with serum-free medium containing 0.5% protease-free bovine serum albumin (BSA), and then cultured overnight. […] Cell lysates were assayed for luciferase activity using the Luciferase Assay System (Promega Corporation, Madison, Wis.). Luciferase activity was measured using a Luminoskan Ascent (Thermo Electron Corporation, Marietta, Ohio). Nonlinear regression analyses of resultant compound concentration curves were performed using GraphPad Prism (GraphPad Software, Inc., San Diego, Calif.).
Background: Reporter assays use an easily measured gene product as a stand-in for the process of interest.

Experiment [2] deals with T2, human GLP-1 receptor (Homo sapiens, UniProt P43220).
T2 construct: expressed in transfected cells; host or cells: CHOK1 cells with a cAMP-regulated luciferase reporter construct
T2 sequence (P43220 24-463): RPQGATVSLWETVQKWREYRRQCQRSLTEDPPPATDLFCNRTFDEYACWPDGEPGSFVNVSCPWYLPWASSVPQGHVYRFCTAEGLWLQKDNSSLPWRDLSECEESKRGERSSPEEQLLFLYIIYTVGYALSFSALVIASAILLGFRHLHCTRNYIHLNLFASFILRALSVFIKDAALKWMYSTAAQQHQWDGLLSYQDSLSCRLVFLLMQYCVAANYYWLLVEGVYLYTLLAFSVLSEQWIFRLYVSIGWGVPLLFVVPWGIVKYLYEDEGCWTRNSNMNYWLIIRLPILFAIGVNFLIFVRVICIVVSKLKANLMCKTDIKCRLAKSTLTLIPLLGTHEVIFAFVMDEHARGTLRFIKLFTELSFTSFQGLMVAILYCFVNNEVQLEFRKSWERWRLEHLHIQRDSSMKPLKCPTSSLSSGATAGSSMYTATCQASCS
Description: GLP-1R reporter assay (cAMP-regulated luciferase, CHOK1 cells), human receptor. The experiment is classed as cell-based. Particulars: luciferase reporter, 6 hours exposure; read-out: EC50 human. The protocol: as §1, §2

Experiment [3] has as its target T2, human GLP-1 receptor. Description: In vitro GLP-1 receptor binding (125I-GLP-1 ligand binding assay), human receptor. The protocol:
Cells were sedimented at 1500 rpm for 10 minutes. The resulting pellets were homogenized in 15 mls of ice cold sucrose buffer (25 mM Tris-HCl, 0.32 M Sucrose, 0.25 g/L sodium azide, pH 7.4) with a motorized, glass fitted, Teflon homogenizer. The homogenate was centrifuged at 48,000×g at 4° C. for 10 minutes, resuspended in 25 ml assay buffer (50 mM Tris-HCl, 5 mM MgCl2, 10 mg/ml protease-free BSA, 0.1 mg/ml STI, and 0.1 mg/ml Pefabloc, pH 7.4) with a Tissue-Tearor (Biospec Products), then centrifuged again at 48,000×g for 10 minutes. The pellets were homogenized for a third time in 15 ml assay buffer using the Tissue-Tearor and again centrifuged at 48,000×g for 10 minutes. The resulting pellet was resuspended in assay buffer at a wet weight concentration of 4 mg/ml.
Binding assays were performed in 96-well U-bottom plates. […] Bound radioactivity was determined using a TopCount microplate scintillation and luminescence counter (Packard Instrument Company, PerkinElmer, Shelton, Conn.). Nonlinear regression analyses of resulting concentration curves were performed using GraphPad Prism (GraphPad Software, Inc., San Diego, Calif.).

Experiment [4] relates to db/db diabetic mouse model. Description: Fed blood glucose in db/db diabetic mice. The experiment is classed as in vivo. The conditions noted are these: for decrease of blood glucose levels over time (FIG. 13): 10 ug injected into each mouse. The protocol: The db/db mice are commercially available from The Jackson Laboratory JAX® GEMM® Strain—Spontaneous Mutation Congenic Mice, and are homozygous for the diabetes spontaneous mutation (Lepr^db). These mice become identifiably obese around 3 to 4 weeks of age. The criterion for selection for each mouse to enter the study was blood glucose of at least 300 mg/dL. Db/db mice at 8.5 weeks of age (for a chronic 1-2 wk study) to about 10-11 weeks of age (for an acute 1-3 day study) were injected once with each tested compound (acute experiment) or multiple times (chronic experiment). […] The mice were then placed in a fresh cage without any chow, so as to limit any variability in blood glucose levels associated with eating behaviors. Time points of 1 hr, 4 hr, 6 hr, and 24 hr were normally taken. When at the 24 hour time point blood glucose values were below where they started, further time points at every 24 hrs were taken until blood glucose returned to the baseline levels. Normal chow was given back after the 6 hr time point.
Tachyphylaxis was determined by multiple injections. A second injection of the compound was administered after the blood glucose levels sufficiently returned to starting baseline levels. At this point, it was evident whether the compound had the same effect/efficacy, or if there was any noticeable tachyphylaxis.

For the molecule `CC[C@H](C)[C@H](NC(=O)[C@H](Cc1ccccc1)NC(=O)[C@H](CCC(=O)O)NC(=O)[C@H](CCCCN)NC(=O)[C@H](C)NC(=O)[C@H](C)NC(=O)[C@H](CCC(N)=O)NC(=O)CNC(=O)[C@H](CCC(=O)O)NC(=O)[C@H](CC(C)C)NC(=O)[C@H](Cc1ccc(O)cc1)NC(=O)[C@H](CO)NC(=O)[C@H](CO)NC(=O)[C@@H](NC(=O)[C@H](CC(=O)O)NC(=O)[C@H](CO)NC(=O)[C@@H](NC(=O)[C@H](Cc1ccccc1)NC(=O)[C@@H](NC(=O)CNC(=O)[C@H](CCC(=O)O)NC(=O)[C@H](C)NC(=O)[C@H](Cc1c[nH]cn1)NC(=O)[C@@H](N)[C@@H](C)O)[C@@H](C)O)[C@@H](C)O)C(C)C)C(=O)N[C@@H](C)C(=O)N[C@@H](Cc1c[nH]c2ccccc12)C(=O)N[C@@H](CC(C)C)C(=O)N[C@H](C(=O)N[C@@H](CCCCN)C(=O)NCC(=O)N[C@@H](CCCNC(=N)N)C(=O)O)C(C)C` [T-GLP-1, T HAEGTFTSDVSSYLEGQAAKEFIAWLVKGR], the EC50 came out at 2 nM in experiment [1] and 0.3 nM in experiment [2]. The IC50 in experiment [3] was 53 nM.
Turning to “cgGLP-18: SEQ ID NO: 12 + 20k PEG (HXEGTFTSDVSSYLEGQAAKEFIAWLVKGRGCSGG; 20k PEG)”, in experiment [4] (relative to control), the “ability to lower blood glucose over a 72 hour time span (FIG. 12)” value is reported as “lowered blood glucose relative to control”.
With `CC[C@H](C)[C@H](NC(=O)[C@H](Cc1ccccc1)NC(=O)[C@H](CCC(=O)O)NC(=O)[C@H](CCCCN)NC(=O)[C@H](C)NC(=O)[C@H](C)NC(=O)[C@H](CCC(N)=O)NC(=O)CNC(=O)[C@H](CCC(=O)O)NC(=O)[C@H](CC(C)C)NC(=O)[C@H](Cc1ccc(O)cc1)NC(=O)[C@H](CO)NC(=O)[C@H](CO)NC(=O)[C@@H](NC(=O)[C@H](CC(=O)O)NC(=O)[C@H](CO)NC(=O)[C@@H](NC(=O)[C@H](Cc1ccccc1)NC(=O)[C@@H](NC(=O)CNC(=O)[C@H](CCC(=O)O)NC(=O)[C@H](C)NC(=O)[C@H](Cc1c[nH]cn1)NC(=O)[C@H](Cc1c[nH]cn1)NC(=O)[C@H](Cc1c[nH]cn1)NC(=O)[C@@H](N)CCSC)[C@@H](C)O)[C@@H](C)O)C(C)C)C(=O)N[C@@H](C)C(=O)N[C@@H](Cc1c[nH]c2ccccc12)C(=O)N[C@@H](CC(C)C)C(=O)N[C@H](C(=O)N[C@@H](CCCCN)C(=O)NCC(=O)N[C@@H](CCCNC(=N)N)C(=O)O)C(C)C` [MHH-GLP1, MHH HAEGTFTSDVSSYLEGQAAKEFIAWLVKGR], the EC50 in experiment [1] turned out to be 5 nM; in experiment [2], 1 nM. This molecule gave an IC50 in experiment [3] of 350 nM.
Consider `CC[C@H](C)[C@H](NC(=O)[C@H](Cc1ccccc1)NC(=O)[C@H](CCC(=O)O)NC(=O)[C@H](CCCCN)NC(=O)[C@H](C)NC(=O)[C@H](C)NC(=O)[C@H](CCC(N)=O)NC(=O)CNC(=O)[C@H](CCC(=O)O)NC(=O)[C@H](CC(C)C)NC(=O)[C@H](Cc1ccc(O)cc1)NC(=O)[C@H](CO)NC(=O)[C@H](CO)NC(=O)[C@@H](NC(=O)[C@H](CC(=O)O)NC(=O)[C@H](CO)NC(=O)[C@@H](NC(=O)[C@H](Cc1ccccc1)NC(=O)[C@@H](NC(=O)CNC(=O)[C@H](CCC(=O)O)NC(=O)[C@H](C)NC(=O)[C@H](Cc1c[nH]cn1)NC(=O)[C@H](C)N)[C@@H](C)O)[C@@H](C)O)C(C)C)C(=O)N[C@@H](C)C(=O)N[C@@H](Cc1c[nH]c2ccccc12)C(=O)N[C@@H](CC(C)C)C(=O)N[C@H](C(=O)N[C@@H](CCCCN)C(=O)NCC(=O)N[C@@H](CCCNC(=N)N)C(=O)O)C(C)C` [A-GLP-1, A HAEGTFTSDVSSYLEGQAAKEFIAWLVKGR], for which the EC50 in experiment [1] is 0.8 nM; in experiment [2], 0.2 nM. The same molecule had an IC50 in experiment [3] of 38 nM.
Take “cgGLP-23: SEQ ID NO: 17 + 20 k PEG (HGEGTFTSDVSSYLE[Aib′]QAAKEFIAWLVKGRGC(20k PEG)-NH2; not fully specified; printed as HGEGT FTSDV SSYLE ZQAAK EFIAW LVKGR GC-amide; also: Aib defined in source as alpha aminobutyric acid)”: in experiment [4], the “decrease of blood glucose levels over time (FIG. 13)” value is “significant decrease in blood glucose levels over a 48 hour time period”.
In the case of `CC[C@H](C)[C@H](NC(=O)[C@H](Cc1ccccc1)NC(=O)[C@H](CCC(=O)O)NC(=O)[C@H](CCCCN)NC(=O)[C@H](C)NC(=O)[C@H](C)NC(=O)[C@H](CCC(N)=O)NC(=O)CNC(=O)[C@H](CCC(=O)O)NC(=O)[C@H](CC(C)C)NC(=O)[C@H](Cc1ccc(O)cc1)NC(=O)[C@H](CO)NC(=O)[C@H](CO)NC(=O)[C@@H](NC(=O)[C@H](CC(=O)O)NC(=O)[C@H](CO)NC(=O)[C@@H](NC(=O)[C@H](Cc1ccccc1)NC(=O)[C@@H](NC(=O)CNC(=O)[C@H](CCC(=O)O)NC(=O)[C@H](C)NC(=O)[C@H](Cc1c[nH]cn1)NC(=O)[C@H](CCSC)NC(=O)[C@@H](N)CCSC)[C@@H](C)O)[C@@H](C)O)C(C)C)C(=O)N[C@@H](C)C(=O)N[C@@H](Cc1c[nH]c2ccccc12)C(=O)N[C@@H](CC(C)C)C(=O)N[C@H](C(=O)N[C@@H](CCCCN)C(=O)NCC(=O)N[C@@H](CCCNC(=N)N)C(=O)O)C(C)C` [MM-GLP1, MM HAEGTFTSDVSSYLEGQAAKEFIAWLVKGR], the results for the EC50 in experiment [1] and in experiment [2] were 3 nM and 0.5 nM, respectively. In experiment [3], the IC50 worked out at 100 nM.
For “cgGLP-9: SEQ ID NO: 6 + 20k PEG dimer (HGEGTFTSDVSSYLEGCAAKEFIAWLVKGRG; not fully specified (residue 17); also: 20k PEG dimer)”, the EC50 in experiment [1] is 9 nM; in experiment [2], 1 nM. In addition, in experiment [3] (membranes of CHOK1 cells expressing human GLP-1 receptor, 0.2 nM 125I-GLP-1), the half-inhibitory concentration (IC50) was more than 1000 nM.
Consider “cgGLP-20: SEQ ID NO: 25 + 20 k mPEG (H[Aib′]EGTFTSDVSSYLE[Aib′]QAAKEFIAWLVKGRGC(20k mPEG)SG; not fully specified)”, for which, in experiment [4], the “decrease of blood glucose levels over time (FIG. 13)” value is “significant decrease in blood glucose levels over a 48 hour time period”.
On to `CC[C@H](C)[C@H](NC(=O)[C@H](Cc1ccccc1)NC(=O)[C@H](CCC(=O)O)NC(=O)[C@H](CCCCN)NC(=O)[C@H](C)NC(=O)[C@H](C)NC(=O)[C@H](CCC(N)=O)NC(=O)CNC(=O)[C@H](CCC(=O)O)NC(=O)[C@H](CC(C)C)NC(=O)[C@H](Cc1ccc(O)cc1)NC(=O)[C@H](CO)NC(=O)[C@H](CO)NC(=O)[C@@H](NC(=O)[C@H](CC(=O)O)NC(=O)[C@H](CO)NC(=O)[C@@H](NC(=O)[C@H](Cc1ccccc1)NC(=O)[C@@H](NC(=O)CNC(=O)[C@H](CCC(=O)O)NC(=O)[C@H](C)NC(=O)[C@H](Cc1c[nH]cn1)NC(=O)[C@@H](N)CO)[C@@H](C)O)[C@@H](C)O)C(C)C)C(=O)N[C@@H](C)C(=O)N[C@@H](Cc1c[nH]c2ccccc12)C(=O)N[C@@H](CC(C)C)C(=O)N[C@H](C(=O)N[C@@H](CCCCN)C(=O)NCC(=O)N[C@@H](CCCNC(=N)N)C(=O)O)C(C)C` [S-GLP-1, S HAEGTFTSDVSSYLEGQAAKEFIAWLVKGR], for which the figures for the EC50 in experiment [1] and in experiment [2] were 2 nM and 0.4 nM, respectively. In addition, in experiment [3], the IC50 turned out to be 53 nM.
